Experimental data taken from patent publication US8436155B2, “7,2″-dehydrate puerarin and its salts, preparation method and use thereof” (Shandong University, priority 2010, dated 2013).

Key:
rat arrhythmias = experiment: Antiarrhythmic experiment: arrhythmia induced by 0.1% BaCl2 in rats, ECG monitored for 30 min; type: in vivo, Wistar rats; conditions: for Arrhythmia duration: if not restored within 30 min, the record was 30 min
Protocol: 1. Method: 60 male, healthy adult Wistar rats with body weight of 180-220 g were randomly divided into 6 groups, i.e., a normal saline group, a propylene glycol solvent gavage group, a propylene glycol solvent intravenous injection group, a puerarin injection group, a 7,2″-dehydrate puerarin gavage group, and a 7,2″-dehydrate puerarin intravenous injection group, with 10 rats each group. The intravenous injection was carried out one time a day for three consecutive days. The gavage was carried out two times a day for three consecutive days. The normal saline group was administered with equal volume of 0.9% NaCl injection. The dose of the propylene glycol solvent gavage group was 14.3% propylene glycol 1 mL/100 g. The dose of the propylene glycol solvent intravenous injection group was 40% propylene glycol 0.5 mL/100 g. The dose of the puerarin injection group was 50 mg/kg. The dose of the 7,2″-dehydrate puerarin gavage group was 60 mg/kg. The dose of the 7,2″-dehydrate puerarin intravenous injection group was 30 mg/kg. The rats were anesthetized with 10% chloral hydrate (0.35 mL/100 g) by intraperitoneal injection and fixed in the back. A BL-410 biological functional system was introduced to monitor the ECG changes of the rats. A femoral vein of the rats was exposed, a scalp needle inserted, and a constant speed syringe pump connected. 0.1% BaCl2 was pumped with a dose of 0.1 mL/100 g and a speed of 0.6 mL/min. From the injection of BaCl2 on, the ECGs were monitored and recorded within 30 min. The arrhythmia latency and arrhythmia duration were recorded (if not restored within 30 min, the record was 30 min). The experimental results were collected and analyzed using Software SPSS. If P<0.05, the results has significant difference.

rabbit blood coagulation = experiment: Anticoagulation experiment in vitro: coagulation time of oxalated rabbit blood after adding CaCl2; conditions: 37±0.5° C., x ± SD
Protocol: 1. Method: A rabbit was weighed and injected with 3% sodium pentobarbital 1 mL/kg via an ear vein, and then anaesthetized. […] The resulting solution was shaken uniformly and put into a constant temperature water bath (37±0.5° C.). Every 30 seconds, the small test tubes were tilted slightly once, and the coagulation time was recorded (the test tubes were tilted slightly, if no blood bled, the time was recorded as coagulation time). The experimental results were collected and analyzed using Software SPSS. If P<0.05, the results has significant difference.

platelet aggregation = conditions: in vitro, dose-dependent; read-out: IC50, inhibition on platelet aggregation in vitro; cited from earlier work

SMILES	Arrhythmia latency (rat arrhythmias; gavage, 60 mg/kg, two times a day for three days, x ± SD)	Arrhythmia duration (rat arrhythmias; gavage, 60 mg/kg, x ± SD)	Arrhythmia latency (rat arrhythmias; intravenous injection, 30 mg/kg, once a day for three days, x ± SD)	Arrhythmia duration (rat arrhythmias; intravenous injection, 30 mg/kg, x ± SD)	coagulation time (rabbit blood coagulation; 0.75 mg/mL (low dose))	coagulation time (rabbit blood coagulation; 1.5 mg/mL (medium dose))	coagulation time (rabbit blood coagulation; 3 mg/mL)	IC50 (platelet aggregation)	Arrhythmia duration (rat arrhythmias; puerarin injection group, 50 mg/kg)	Arrhythmia latency (rat arrhythmias; puerarin injection group, 50 mg/kg, once a day for three days, x ± SD)
O=c1c(-c2ccc(O)cc2)coc2c3c(ccc12)O[C@@H]1[C@@H](O)[C@H](O)[C@@H](CO)O[C@@H]31 [7,2″-dehydrate puerarin]	29.25 ± 5.12 s	2.09 ± 0.98 min	47.25 ± 19.87 s	17.75 ± 4.61 min	14.7 ± 1.6 min	22.7 ± 2.6 min	38.5 ± 2.1 min			
CC(=O)Oc1ccccc1C(=O)Oc1ccc2c(=O)c(-c3ccc(O)cc3)coc2c1[C@@H]1O[C@H](CO)[C@@H](O)[C@H](O)[C@H]1O [7-acetylsalicylic acyl puerarin]								910 µM		
O=c1c(-c2ccc(O)cc2)coc2c([C@@H]3O[C@H](CO)[C@@H](O)[C@H](O)[C@H]3O)c(O)ccc12 [Puerarin]							15.3 ± 2.4 min		30 min	86.75 ± 42.55 s
